pIC50: −log10 of the molar value.
Tests used:
[1] = target: T1, topoisomerase I (topoI) (Dickeya dadantii, UniProt E0SBX6); assay: pUC18 plasmid relaxation assay on agarose gel with purified topoI; format: biochemical
T1 construct: gene topA; N-terminally 6xhis-tagged topoisomerase I

[2] = target: T2, topoisomerase I (topoI) (Escherichia coli, UniProt P06612); assay: plasmid relaxation assay on agarose gel with purified commercial topoI; format: biochemical
T2 construct: gene topA; commercial topoI (NEB)
T2 sequence (P06612 whole entry): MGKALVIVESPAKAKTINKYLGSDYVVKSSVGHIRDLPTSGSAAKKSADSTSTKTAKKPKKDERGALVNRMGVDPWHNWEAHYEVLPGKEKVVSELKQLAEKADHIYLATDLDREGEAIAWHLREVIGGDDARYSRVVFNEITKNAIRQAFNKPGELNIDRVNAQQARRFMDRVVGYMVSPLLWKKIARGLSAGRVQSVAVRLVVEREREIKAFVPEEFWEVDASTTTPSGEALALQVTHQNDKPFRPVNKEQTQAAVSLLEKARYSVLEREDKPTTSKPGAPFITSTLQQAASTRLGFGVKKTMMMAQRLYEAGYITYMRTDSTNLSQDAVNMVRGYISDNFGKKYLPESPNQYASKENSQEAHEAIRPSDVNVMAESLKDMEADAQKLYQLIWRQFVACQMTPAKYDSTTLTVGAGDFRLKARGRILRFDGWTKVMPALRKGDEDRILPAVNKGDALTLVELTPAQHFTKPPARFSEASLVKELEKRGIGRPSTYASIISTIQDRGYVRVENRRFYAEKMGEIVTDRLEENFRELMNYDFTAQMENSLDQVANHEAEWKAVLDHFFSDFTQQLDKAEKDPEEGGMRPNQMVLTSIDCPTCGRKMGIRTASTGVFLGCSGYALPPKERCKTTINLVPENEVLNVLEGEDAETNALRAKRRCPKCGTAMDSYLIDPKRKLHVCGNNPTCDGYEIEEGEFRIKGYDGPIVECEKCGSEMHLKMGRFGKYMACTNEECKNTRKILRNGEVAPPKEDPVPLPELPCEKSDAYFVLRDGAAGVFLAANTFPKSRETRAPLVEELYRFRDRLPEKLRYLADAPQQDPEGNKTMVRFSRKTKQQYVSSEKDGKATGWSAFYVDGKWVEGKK

T1 sequence (E0SBX6 entry or part of it): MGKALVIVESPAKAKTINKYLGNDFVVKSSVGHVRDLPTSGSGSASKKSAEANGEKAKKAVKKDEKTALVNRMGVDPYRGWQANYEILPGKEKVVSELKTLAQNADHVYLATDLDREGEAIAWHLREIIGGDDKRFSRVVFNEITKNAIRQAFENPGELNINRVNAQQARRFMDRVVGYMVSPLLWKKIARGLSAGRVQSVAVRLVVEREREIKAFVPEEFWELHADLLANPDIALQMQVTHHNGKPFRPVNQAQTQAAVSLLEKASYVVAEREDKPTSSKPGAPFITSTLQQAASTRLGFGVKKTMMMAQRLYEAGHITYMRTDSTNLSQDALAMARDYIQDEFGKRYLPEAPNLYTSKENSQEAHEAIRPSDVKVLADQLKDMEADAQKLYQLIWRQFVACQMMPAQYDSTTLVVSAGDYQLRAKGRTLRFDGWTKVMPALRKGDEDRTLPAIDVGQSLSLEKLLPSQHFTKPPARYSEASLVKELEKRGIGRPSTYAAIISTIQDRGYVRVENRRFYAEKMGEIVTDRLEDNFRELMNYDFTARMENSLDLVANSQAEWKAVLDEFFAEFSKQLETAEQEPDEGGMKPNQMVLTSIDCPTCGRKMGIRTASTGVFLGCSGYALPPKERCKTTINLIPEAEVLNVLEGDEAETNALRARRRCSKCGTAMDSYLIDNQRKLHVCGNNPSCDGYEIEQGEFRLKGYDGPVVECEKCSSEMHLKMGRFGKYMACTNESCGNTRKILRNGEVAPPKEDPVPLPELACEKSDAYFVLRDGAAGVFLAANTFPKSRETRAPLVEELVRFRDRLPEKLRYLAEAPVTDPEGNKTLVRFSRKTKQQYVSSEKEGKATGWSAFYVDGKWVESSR

`CNCCc1cc2c(c3c1ccc1cc4c(cc13)OCO4)OCO2` [SCN, seconeolitsine] gave a pIC50 [1] of 5.40 and a pIC50 [2] of roughly 5.15.

From paper PMC9458453, “What is a supercoiling-sensitive gene? Insights from topoisomerase I inhibition in the Gram-negative bacterium Dickeya dadantii” (Nucleic Acids Research, 2022)
